In general, GI50 refers to the concentration that inhibits growth by half. High values mean lower sensitivity of the cells, low ones greater sensitivity of the cells. For orientation: TGI means the concentration at which net growth stops. Read a low TGI as greater sensitivity of the cells.

Data on six compounds can be found in ChEMBL document CHEMBL2202954, “The effect of PLC-γ2 inhibitors on the growth of human tumour cells” (2012).

Format in all cases: functional
In test [1] the test system is MDA-MB-468. Briefly: Cytotoxicity against human MDA-MB-468 cells by SRB assay.
For test [2], the system named is MDA-MB-435. As to the kind of experiment: Cytotoxicity against human MDA-MB-435 cells by SRB assay. Particulars: for CC50: read-out: LC50 (the source's name). (In general: Sulforhodamine B stains cellular protein and so reports cell mass.)
Test [3] deals with SF-295. Briefly: Cytotoxicity against human SF295 cells by SRB assay.
The subject of test [4] is SR. Briefly: Cytotoxicity against human SR cells by SRB assay.
Test [5] concerns RPMI-8226. As to the kind of experiment: Cytotoxicity against human RPMI8226 cells by SRB assay.
For test [6], the system named is MOLT-4. Briefly: Cytotoxicity against human MOLT4 cells by SRB assay.
Test [7] relates to K562. As to the kind of experiment: Cytotoxicity against human K562 cells by SRB assay.
For test [8], the system named is HL-60(TB). Briefly: Cytotoxicity against human HL-60(TB) cells by SRB assay.
Test [9] concerns CCRF-CEM. Briefly: Cytotoxicity against human CCRF-CEM cells by SRB assay.

Bounds are passed on as bounds.

Regarding `Nc1c(C(=O)Nc2ccccc2F)sc2nc3c(cc12)C(=O)CCC3`, the GI50 came out at 0.238 µM in test [1]; 0.196 µM in test [2]; 0.57 µM in [3]; 1.8 µM in test [4]; 1.8 µM in test [5]; 1.8 µM in test [6]. In addition, the GI50 in test [7], in test [8] and in test [9] was 1.8 µM in each case. Further, the TGI was 0.952 µM in test [1]; 0.567 µM in test [2]; 85.7 µM in [3]; over 100 µM in test [4]; over 100 µM in test [5]; over 100 µM in test [6]. The TGI in [7], in test [8] and in test [9] was over 100 µM throughout. Further, the CC50 in [2] came to 8 µM.

`Nc1c(C(=O)Nc2cccc(Cl)c2)sc2nc3c(cc12)C(=O)CCC3`: the concentration for 50% growth inhibition (GI50) came to 0.045 µM in [1]; 0.045 µM in test [2]; 0.213 µM in [3]; 0.2 µM in test [4]; 0.2 µM in [5]; 0.2 µM in test [6]. For the same compound, the concentration for 50% growth inhibition (GI50) in test [7], in test [8] and in test [9] was 0.2 µM throughout. Further, the TGI in [1] is 0.622 µM; in [2], 0.27 µM; in test [3], 0.781 µM; in test [4] it was over 100 µM; in [5], over 100 µM; in test [6], over 100 µM. The TGI in [7], in test [8] and in test [9] was over 100 µM throughout. In test [2], the CC50 came out at 0.9 µM.

`Cc1cc(C)c(NC(=O)c2sc3nc4c(cc3c2N)C(=O)CCC4)c(C)c1`: the GI50 is 0.596 µM in test [1]; 0.267 µM in [2]; 0.399 µM in test [3]; 3.6 µM in test [4]; 3.6 µM in test [5]; 3.6 µM in [6]. Further, the GI50 in [7], in test [8] and in [9] was 3.6 µM in each case. The TGI in test [1] was 3.65 µM; in test [2] it was 1.16 µM; in test [4] it was over 100 µM; in test [5] it was over 100 µM; in [6], over 100 µM; in test [7], over 100 µM. The TGI in test [8] and in test [9] was over 100 µM throughout.

In the case of `Cc1ccccc1NC(=O)c1sc2nc3c(cc2c1N)C(=O)CCC3`, the 50% growth inhibitory concentration (GI50) amounted to 0.529 µM in [1]; 0.331 µM in test [2]; 1.33 µM in [3]; 4.3 µM in [4]; 4.3 µM in [5]; 4.3 µM in test [6]. Also, the GI50 in [7], in test [8] and in test [9] was 4.3 µM each time. For the same compound, the TGI in test [1] was 6.21 µM; in test [2] it was 1.98 µM; in [4], over 100 µM; in [5], over 100 µM; in test [6], over 100 µM; in [7], over 100 µM. Also, the TGI in test [8] and in test [9] was over 100 µM in each case.

On to `Nc1c(C(=O)Nc2ccccc2)sc2nc3c(cc12)C(=O)CCC3`, for which the GI50 in [1] was 0.15 µM; in [2], 0.089 µM; in [3] it was 0.372 µM; in test [4], 0.52 µM; in test [5], 0.52 µM; in [6], 0.52 µM. In addition, the 50% growth inhibitory concentration (GI50) in [7], in test [8] and in test [9] was 0.52 µM throughout. Also, the TGI in [1] was 0.583 µM; in test [2], 0.297 µM; in [4], over 100 µM; in [5] it was over 100 µM; in test [6], over 100 µM; in [7], over 100 µM. Moreover, the TGI in test [8] and in test [9] was over 100 µM in each case.

As to `Cc1ccc(Cl)cc1NC(=O)c1sc2nc3c(cc2c1N)C(=O)CCC3`, the GI50 was determined as 2.74 µM in test [1]; 1.1 µM in [2]; 2.33 µM in test [3]; 3.5 µM in [4]; 3.5 µM in [5]; 3.5 µM in test [6]. Moreover, the GI50 in test [7], in test [8] and in test [9] was 3.5 µM each time. The TGI in [1] was 8.76 µM; in test [2], 5.04 µM; in test [3] it was 7.44 µM; in test [4], over 100 µM; in [5], over 100 µM; in [6], over 100 µM. Moreover, the TGI in test [7], in test [8] and in test [9] was over 100 µM in each case.
